From PubChem BioAssay (NCI) come the findings set out here.

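Cells were grown in 96-well plates and exposed to each compound for 48 hours at five concentrations; endpoints were interpolated linearly between bracketing concentrations, or set to the highest concentration if not reached. TGI is the concentration that stops growth completely.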

Test in all cases: DTP human tumour cell line panel, 48 h
The subject of assay [1] is SNB-19 CNS.
For assay [2], the system named is OVCAR-5 ovarian.
Assay [3] has as its system NCI-H522 lung.
Assay [4] relates to RPMI-8226 leukemia.
Assay [5] has as its system SW-620 colon.
Assay [6] relates to UACC-257 melanoma.
Assay [7] has as its system NCI-H226 lung.
The subject of assay [8] is A498 renal.
Assay [9] has as its system HCT-116 colon.
The test system of assay [10] is COLO 205 colon.
Assay [11] concerns MOLT-4 leukemia.
In assay [12] the test system is CCRF-CEM leukemia.

As for `COc1ccc2c[n+](C)c3c4cc(OC)c(OC)cc4ccc3c2c1`, the TGI came to 12 µM in assay [1]; 34.4 µM in assay [2]; 7.5 µM in assay [3]; 16.1 µM in assay [4]; 16.4 µM in assay [5]; 57.6 µM in assay [6]. For the same molecule, the TGI was 35.1 µM in assay [7]; more than 100 µM in [8]; 16.8 µM in assay [9]; 5.49 µM in [10]; 32.3 µM in assay [11]; 31.2 µM in assay [12].
Take `O=C1/C(=C/c2ccc(Cl)cc2)N=C(c2ccccc2)N1C1Nc2cc3c(cc2S1)NC(N1C(=O)/C(=C/c2ccc(Cl)cc2)N=C1c1ccccc1)S3` (stereo not drawn): the TGI in [2] was more than 100 µM; in assay [3], 63.3 µM; in [4], more than 100 µM; in [5], more than 100 µM; in [6], more than 100 µM; in assay [7] it was more than 100 µM. The TGI in [8], in [9], in [11] and in assay [12] was more than 100 µM in each case.
For the molecule `CC1(C)CCCCCC(C)(CCCCCCCCCCCO)C1=O` (stereo not drawn), the TGI in assay [1] stood at 31.2 µM; in assay [2], 31.2 µM; in [3] it was 31.1 µM; in assay [4] it was 47.2 µM; in assay [5], 32.9 µM; in assay [6] it was 27 µM. In addition, the TGI in [7] amounted to 32.3 µM; in assay [8], 33 µM; in assay [9] it was 28.8 µM; in assay [10], 30.9 µM; in assay [11], 46.3 µM; in assay [12], 29.7 µM.
For the molecule `COc1cc2c(oc(=O)c3cc4ccoc4c(OC)c32)c2cccc(O)c12`, the TGI in assay [1], in [2], in assay [3], in assay [4], in [5] and in assay [6] was more than 100 µM in each case. Moreover, the TGI in assay [7], in assay [8], in assay [9], in assay [10], in assay [11] and in assay [12] was more than 100 µM each time.
For the molecule `BrCCC[P+](c1ccccc1)(c1ccccc1)c1ccccc1`, the TGI was more than 100 µM in assay [1]; more than 100 µM in assay [2]; more than 27.5 µM in [3]; more than 100 µM in assay [4]; more than 100 µM in assay [5]; 48.3 µM in assay [6]. Further, the TGI was more than 100 µM in assay [7]; more than 100 µM in assay [8]; 2.99 µM in assay [9]; 4.16 µM in [10]; more than 94.6 µM in assay [11]; more than 100 µM in [12].
Turning to `Nc1ccc(C(=O)NN2C(=O)C(Cl)C2c2ccc([N+](=O)[O-])cc2)cc1` (stereo not drawn), the TGI in [1] is 26 µM; in assay [2], 41.6 µM; in assay [3], 3.21 µM; in assay [4] it was 42.8 µM; in assay [5], 26.2 µM; in assay [6] it was 31.2 µM. For the same molecule, the TGI is 34.9 µM in assay [7]; 38.6 µM in assay [8]; 4.31 µM in [9]; 29.1 µM in assay [10]; 9.8 µM in [11]; 14 µM in assay [12].
Consider `Cc1cc(N(CCC#N)CCC#N)ccc1/C(N=Nc1ccccc1)=N\NC(=O)c1ccccc1`, for which the TGI is more than 100 µM in assay [1]; more than 100 µM in [2]; 35.3 µM in assay [3]; more than 100 µM in assay [4]; more than 100 µM in [6]; more than 100 µM in assay [7]. Besides, the TGI in assay [8] was 93.7 µM; in [9] it was more than 100 µM; in [10], 53.6 µM; in assay [11], 64.5 µM; in assay [12], 61.7 µM.
For `O=C1NC(N/N=C/c2ccccc2)=N/C1=C\c1cccs1`, the TGI in [1] was more than 87.3 µM; in [2], 70.8 µM; in assay [3] it was 5.61 µM; in assay [4], more than 41 µM; in assay [5], more than 47.5 µM; in assay [6] it was more than 100 µM. In addition, the TGI was 25.8 µM in assay [7]; 28 µM in [8]; 36.3 µM in [9]; 19.9 µM in assay [10]; more than 92.3 µM in assay [11]; more than 75.8 µM in assay [12].
Regarding `O=C1OC2c3ccccc3C(=O)C2(c2ccccc2)N1c1ccccc1` (stereo not drawn), the TGI in assay [1], in [2], in assay [3], in assay [4], in assay [5] and in [6] was more than 200 µM each time. The TGI in assay [7], in assay [8], in [9], in [10], in assay [11] and in [12] was more than 200 µM throughout.
Regarding `CC(C)C(Sc1nc(-c2ccccc2)c(-c2ccccc2)[nH]1)C(=O)N/N=C/c1ccc([N+](=O)[O-])cc1` (stereo not drawn), the TGI in assay [1] amounted to 41.7 µM; in assay [2] it was 44.8 µM; in assay [3], 32.4 µM; in assay [4], 47.6 µM; in [5] it was 37.2 µM; in assay [6], 28.8 µM. For the same molecule, the TGI in assay [7] was 40.3 µM; in assay [8], 42.6 µM; in assay [9], 28 µM; in assay [10] it was 24.9 µM; in assay [11], 10.3 µM; in assay [12] it was 28.2 µM.
As for `N#CC(C#N)=Cc1ccc(C=C2SC3=C(SCCS3)S2)s1`, the TGI in assay [1] is more than 100 µM; in assay [2], 35.2 µM; in assay [3] it was more than 100 µM; in [4], 6.28 µM; in assay [5], more than 100 µM; in [6] it was more than 100 µM. In addition, the TGI was 9.73 µM in assay [7]; 42.7 µM in assay [8]; more than 100 µM in assay [9]; more than 100 µM in assay [10]; more than 100 µM in assay [11]; more than 100 µM in assay [12].
Turning to `C[N+](C)(C)C1(C(=O)[O-])CC1`, the total growth inhibition concentration (TGI) in [1], in [2], in assay [3], in [4], in assay [5] and in [6] was more than 100 µM in each case. Moreover, the TGI in [7], in assay [8], in assay [9], in assay [11] and in [12] was more than 100 µM throughout.
For the molecule `COc1ccc(N2CCN(Cc3c(C(C)=O)[n+](=O)c4ccccc4n3[O-])CC2)cc1`, the TGI in assay [1], in [2], in [3], in assay [4], in assay [5] and in assay [6] was more than 100 µM in each case. Moreover, the TGI in assay [7], in assay [8], in assay [9], in assay [10] and in [12] was more than 100 µM each time.
Turning to `CC(=O)O[C@H]1CC[C@H]2[C@@H]3CCC4=C(C(=O)C=CC4(C)OC(C)=O)[C@H]3CC[C@]12C` (stereo partly drawn), the TGI in assay [1], in [2], in assay [3], in assay [4], in [5] and in [6] was more than 100 µM throughout. For the same molecule, the TGI in [7], in assay [8], in assay [9], in [11] and in [12] was more than 100 µM in each case.
For the molecule `Fc1ccc(NCn2nc(COc3ccccc3Cl)n(/N=C/c3ccc(-c4ccc(Cl)cc4Cl)o3)c2=S)cc1Cl`, the TGI in [2] is more than 100 µM; in assay [3], more than 100 µM; in assay [4] it was 72 µM; in assay [5], more than 100 µM; in [6], more than 100 µM; in assay [7], more than 100 µM. Besides, the TGI in assay [8] was 41.6 µM; in assay [9] it was more than 100 µM; in [11], 45.5 µM; in [12] it was more than 100 µM.
In the case of `CC(=O)OCC1OC(n2c3c(cc(C#N)c2=S)CCCCCC3)C(OC(C)=O)C(OC(C)=O)C1OC(C)=O` (stereo not drawn), the TGI in [1], in assay [2], in assay [3], in assay [4], in assay [6] and in assay [7] was more than 100 µM in each case. Moreover, the TGI in assay [8], in assay [9], in assay [10], in [11] and in assay [12] was more than 100 µM each time.
Take `COc1cc(C2c3[nH]c4ccc(F)cc4c3C[C@H]3COC(=O)N23)cc(OC)c1O` (stereo partly drawn): the TGI was more than 100 µM in assay [1]; 49.2 µM in assay [2]; 35.5 µM in assay [3]; more than 100 µM in assay [4]; more than 100 µM in assay [6]; 32.3 µM in [7]. In addition, the TGI in assay [8] was 25.6 µM; in [9], 25.5 µM; in [10], 23.7 µM; in assay [11], more than 100 µM; in assay [12], more than 100 µM.
As for `Cn1c(=O)c2nc3nnc(C#N)c(N)n3c2n(C)c1=O`, the TGI in assay [2], in assay [3], in [4], in assay [7], in assay [8] and in assay [9] was more than 100 µM throughout. Also, the TGI in assay [10], in assay [11] and in assay [12] was more than 100 µM each time.

A word on the TGI: it is the concentration giving total growth inhibition. A low value points to greater sensitivity of the cells.
